# Assay results taken from EP4582426A1, “PAN-KRAS INHIBITOR COMPOUND” (Adlai Nortye Biopharma Co., Ltd., priority 2022, dated 2024).
# Assays:
# [1] = tested on: AsPC-1 (G12D); assay: In vitro cell proliferation inhibition test (CellTiter-Glo Luminescent Cell Viability Assay); type: cell-based; settings: AsPC-1 cell line, Pancreas, KRAS (p.G12D), cells and compounds co-incubated 72 hours
# Source text: (§1) Due to the diversity of RAS mutations and in order to evaluate the activity of compounds in different RAS mutant cell lines, we selected KRAS^WT, KRAS^G12C, KRAS^G12D), KRAS^G12V and BRAF mutant cell lines (see the table below) for in vitro activity evaluation and screening of compounds .
# (§2) Experimental protocol: CellTiter-Glo® Cell Luminescent Viability Assay (Promega)
# (§3) According to the doubling time of different cell lines, different numbers of cells (1000-5000 cells/well) were inoculated into 96-well plates containing 180 µl of the corresponding medium, and cultured overnight in a 37°C cell incubator containing 5% CO2. On the second day, the compound to be tested was pre-diluted 3-fold with the medium, the highest concentration was 100 µM, and there were 10 concentration gradients in total; then 20 µl of the medium containing different concentrations of the compound was added to the cells in the 96-well plate to ensure the final concentration of the compound to be up to 10 µM, with 10 concentration gradients of 3-fold dilutions. After co-incubating cells and compounds for 72 hours, the 96-well plate was taken out of the incubator, placed at room temperature for 30 minutes, and then 25 µl CellTiter-Glo® Reagent was added to each well to mix well, and incubated at room temperature for 10 minutes, and then 100 µl of the sample was transferred to a white 96-well plate (OptiPlateTM-96, PerkinElmer), the […] signal value was read using a multi-functional microplate reader (SpectraMax® i3x, Molecular devices). Subsequently, the signal value was standardized, and the four-parameter fitting regression equation was used for curve fitting to calculate the half maximal inhibitory concentration (IC50) of the compound on the cell line. Table 3: Antiproliferative activity of compounds of the present invention on KRAS cell mutants
# [2] = tested on: SW480 (G12V); assay: as above; type: cell-based; settings: SW480 cell line, Large intestine, Colon, KRAS (p.G12V), cells and compounds co-incubated 72 hours
# Source text: as §1, §2, §3
Compound,IC50 [1],IC50 [2],further results
"(1S,2S)-N-((6^3S,4S,Z)-1^2-(5-(3-(dimethylamino)prop-1-yn-1-yl)-2-((S)-1-methoxyethyl)pyridin-3-yl)-1^1-ethyl-10,10-dimethyl-5,7-dioxo-6^1,6^2,6^3,6^4,6^5,6^6-hexahydro-1^1H-8-oxa-2(4,2)-thiazola-1(5,3)-indola-6(1,3)-pyridazinacycloundecaphane-4-yl)-2-methylcyclopropane-1-carboxamide [Example 61]",5 nM,1.58 nM,–
"CCn1c(-c2cc(C#Cc3cccc4ccn(C)c34)cnc2[C@H](C)OC)c2c3cc(ccc31)-c1csc(n1)C[C@H](NC(=O)[C@H]1C[C@@H]1C)C(=O)N1CCC[C@H](N1)C(=O)OCC(C)(C)C2 [Example 47, (1S,2S)-N-((6^3S,4S,Z)-1^1-ethyl-1^2-(2-((S)-1-methoxyethyl)-5-((1-methyl-1H-indol-7-yl)ethynyl)pyridin-3-yl)-10,10-dimethyl-5,7-dioxo-6^1,6^2,6^3,6^4,6^5,6^6-hexahydro-1^1H-8-oxa-2(4,2)-thiazola-1(5,3)-indola-6(1,3)-pyridazinacycloundecaphane-4-yl)-2-methylcyclopropane-1-carboxamide]",–,–,"IC50 ([1]; Homo sapiens, ASPC1): 456 nM; IC50 ([2]; Homo sapiens): 116 nM"
"CCn1c(-c2cc(C#CC3CCN(CCO)CC3)cnc2C(C)OC)c2c3cc(ccc31)-c1csc(n1)CC(NC(=O)C1CC1C)C(=O)N1CCCC(N1)C(=O)OCC(C)(C)C2 [Example 55, (1S,2S)-N-((6^3S,4S,Z)-1^1-ethyl-1^2-(5-((1-(2-hydroxyethyl)piperidin-4-yl)ethynyl)-2-((S)-1-methoxyethyl)pyridin-3-yl)-10,10-dimethyl-5,7-dioxo-6^1,6^2,6^3,6^4,6^5,6^6-hexahydro-1^1H-8-oxa-2(4,2)-thiazola-1(5,3)-indola-6(1,3)-pyridazinacycloundecaphane-4-yl)-2-methylcyclopropane-1-carboxamide]",3 nM,23.3 nM,–
"CCn1c(-c2cc(C#C[C@@H]3COCCN3C)cnc2[C@H](C)OC)c2c3cc(ccc31)-c1csc(n1)C[C@H](NC(=O)[C@H]1C[C@@H]1C)C(=O)N1CCC[C@H](N1)C(=O)OCC(C)(C)C2 [Example 28, (1S,2S)-N-((6^3S,4S,Z)-1^1-ethyl-1^2-(2-((S)-1-methoxyethyl)-5-(((R)-4-methylmorpholin-3-yl)ethynyl)pyridin-3-yl)-10,10-dimethyl-5,7-dioxo-6^1,6^2,6^3,6^4,6^5,6^6-hexahydro-1^1H-8-oxa-2(4,2)-thiazola-1(5,3)-indola-6(1,3)-pyridazinacycloundecaphane-4-yl)-2-methylcyclopropane-1-carboxamide]",1.9 nM,2.5 nM,–
"(1S,2S)-N-((6^3S,4S,Z)-1^1-ethyl-1^2-(5-((2-(ethylamino)pyrimidin-5-yl)ethynyl)-2-((S)-1-methoxyethyl)pyridin-3-yl)-10,10-dimethyl-5,7-dioxo-6^1,6^2,6^3,6^4,6^5,6^6-hexahydro-1^1H-8-oxa-2(4,2)-thiazola-1(5,3)-indola-6(1,3)-pyridazinacycloundecaphane-4-yl)-2-methylcyclopropane-1-carboxamide [Example 42]",22.2 nM,6.9 nM,–
CCn1c(-c2cc(C#C[C@@H]3CCN(C)C3)cnc2[C@H](C)OC)c2c3cc(ccc31)-c1csc(n1)C[C@H](NC(=O)C1[C@@H](C)[C@H]1C)C(=O)N1CCC[C@H](N1)C(=O)OCC(C)(C)C2 (stereo partly drawn) [Example 14],< 0.1 nM,0.2 nM,IC50 ([1]; listed as 14'): 57.1 nM
"CCn1c(-c2cc(C#CC3(C)CN(C)C3)cnc2C(C)OC)c2c3cc(ccc31)-c1csc(n1)CC(NC(=O)C1C(C)C1C)C(=O)N1CCCC(N1)C(=O)OCC(C)(C)C2 (single isomer, unassigned) [Example 19]",2.2 nM,1.5 nM,–
"CCn1c(-c2cc(C#Cc3cnccn3)cnc2[C@H](C)OC)c2c3cc(ccc31)-c1csc(n1)C[C@H](NC(=O)[C@H]1C[C@@H]1C)C(=O)N1CCC[C@H](N1)C(=O)OCC(C)(C)C2 (single isomer, unassigned) [Example 27]",4.6 nM,14.5 nM,–
"CCn1c(-c2cc(C#CC3CN(C)CCS3(=N)=O)cnc2C(C)OC)c2c3cc(ccc31)-c1csc(n1)CC(NC(=O)C1CC1C)C(=O)N1CCCC(N1)C(=O)OCC(C)(C)C2 [Example 51, (1S,2S)-N-((6^3S,4S,Z)-1^1-ethyl-1^2-(5-(((2S)-1-imino-4-methyl-1-oxido-1λ^6-thiomorpholin-2-yl)ethynyl)-2-((S)-1-methoxyethyl)pyridin-3-yl)-10,10-dimethyl-5,7-dioxo-6^1,6^2,6^3,6^4,6^5,6^6-hexahydro-1^1H-8-oxa-2(4,2)-thiazola-1(5,3)-indola-6(1,3)-pyridazinacycloundecaphane-4-yl)-2-methylcyclopropane-1-carboxamide]",4.5 nM,5.4 nM,–
"CCn1c(-c2cc(C#CCCN3CCOCC3)cnc2[C@H](C)OC)c2c3cc(ccc31)-c1csc(n1)C[C@H](NC(=O)[C@H]1C[C@@H]1C)C(=O)N1CCC[C@H](N1)C(=O)OCC(C)(C)C2 (single isomer, unassigned) [Example 5]",3220 nM,24.6 nM,IC50 ([2]; listed as 5'): 2020 nM
"CCn1c(-c2cc(C#CCN3CCOCC3CO)cnc2C(C)OC)c2c3cc(ccc31)-c1csc(n1)CC(NC(=O)C1C(C)C1C)C(=O)N1CCCC(N1)C(=O)OCC(C)(C)C2 (single isomer, unassigned) [Example 25]",0.35 nM,0.51 nM,–
"CCn1c(-c2cc(C#CCN3CCS(=N)(=O)CC3)cnc2C(C)OC)c2c3cc(ccc31)-c1csc(n1)CC(NC(=O)C1CC1C)C(=O)N1CCCC(N1)C(=O)OCC(C)(C)C2 [Example 57, (1S,2S)-N-((6^3S,4S,Z)-1^1-ethyl-1^2-(5-(3-(1-imino-1-oxido-1l6-thiomorpholino)prop-1-yn-1-yl)-2-((S)-1-methoxyethyl)pyridin-3-yl)-10,10-dimethyl-5,7-dioxo-6^1,6^2,6^3,6^4,6^5,6^6-hexahydro-1^1H-8-oxa-2(4,2)-thiazola-1(5,3)-indola-6(1,3)-pyridazinacycloundecaphane-4-yl)-2-methylcyclopropane-1-carboxamide]",1.9 nM,2 nM,–
"CCn1c(-c2cc(C#C[C@@H]3COCCN3C)cnc2[C@H](C)OC)c2c3cc(ccc31)-c1csc(n1)C[C@H](NC(=O)[C@H]1C[C@@H]1C)C(=O)N1CCC[C@H](N1)C(=O)OCC(C)(C)C2 [Example 7, (1S,2S)-N-((63S,4S,Z)-11-ethyl-12-(2-((S)-1-methoxyethyl)-5-(((R)-4-methylmorpholin-3-yl)ethynyl)pyridin-3-yl)-10,10-dimethyl-5,7-dioxo-61,62,63,64,65,66-hexahydro-11H-8-oxa-2(4,2)-Thiazola-1(5,3)-indola-6(1,3)-pyridazinacyclonecaphane-4-yl)-2-methylcyclopropane-1-carboxamide]",5.1 nM,4.6 nM,IC50 ([1]; listed as 7'): 2640 nM; IC50 ([2]; listed as 7'): 830 nM
"(1S,2S)-N-((6^3S,4S,Z)-1^1-ethyl-1^2-(2-((S)-1-methoxyethyl)-5-((6-methyl-5,6,7,8-tetrahydropyrido[4,3-d]pyrimidin-2-yl)ethynyl)pyridin-3-yl)-10,10-dimethyl-5,7-dioxo-6^1,6^2,6^3,6^4,6^5,6^6-hexahydro-1^1H-8-oxa-2(4,2)-thiazola-1(5,3)-indola-6(1,3)-pyridazinacycloundecaphane-4-yl)-2-methylcyclopropane-1-carboxamide [Example 44]",16.8 nM,6.3 nM,–
"(1S,2S)-N-((6^3S,4S,Z)-1^2-(5-(3-(1,1-dioxidothiomorpholino)prop-1-yn-1-yl)-2-((S)-1-methoxyethyl)pyridin-3-yl)-1^1-ethyl-10,10-dimethyl-5,7-dioxo-6^1,6^2,6^3,6^4,6^5,6^6-hexahydro-1^1H-8-oxa-2(4,2)-thiazola-1(5,3)-indola-6(1,3)-pyridazinacycloundecaphane-4-yl)-2-methylcyclopropane-1-carboxamide [Example 43]",0.42 nM,0.68 nM,–
"CCn1c(-c2cc(C#CCN3CCOCC3)cnc2[C@H](C)OC)c2c3cc(ccc31)-c1csc(n1)C[C@H](NC(=O)C1(C(F)(F)F)CC1)C(=O)N1CCC[C@H](N1)C(=O)OCC(C)(C)C2 (single isomer, unassigned) [Example 26]",20.8 nM,34.6 nM,–
